In patent publication US8729089B2 (Gilead Sciences, Inc., priority 2006, dated 2014) one finds EC50 and CC50 data, which are given here for 20 compounds.

SMILES strings stand for the structures. pEC50: −log10 of the molar value. Some results are limits rather than exact numbers.

As usually defined, the pEC50 is the negative decadic logarithm of the EC50, by convention in mol/L. A higher pEC50 goes with a small EC50. What is called CC50 is the concentration that lowers cell viability or growth by half. A low value points to harm at low concentration.

Series [1] relates to HCV replicon in human hepatoma Huh-7 cell line. The series is described as follows: Anti-HCV replicon assay (EC50, luciferase). Format: cell-based. To be noted: Hepatitis C virus, Huh-7, 72 h. The method in brief: (§1)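 Huh-7 cells carrying an HCV replicon (6000/well) exposed to 3-fold serial compound dilutions for 3 days at 37 °C, final DMSO 0.5% where used. EC50 read as replicon luciferase luminescence after cell lysis; CC50 from CellTiter-Glo luminescence after 10 min at room temperature.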
Background: Replicon systems follow genome replication, usually without infectious particles.

Series [2] in a line: CC50 assay (CellTiter-Glo) in Huh-7 HCV replicon cells. Type of series: cell-based, human. To be noted: human, 3 days incubation, CellTiter-Glo readout. The method in brief: as §1
(In general: ATP-based viability assays read luminescence as a measure of living cells.)

Consider `CCOc1nc(NCc2cc(F)cc(F)c2)nc2ccc(-c3ccc(F)cc3)nc12` [Example 45, (3,5-Difluoro-benzyl)-[4-ethoxy-6-(4-fluoro-phenyl)-pyrido[3,2-d]pyrimidin-2-yl]-amine], for which the pEC50 in series [1] is > 7.00. This compound also showed a CC50 at 3 days in series [2] of 5 to 25 µM.

Turning to `CS(=O)(=O)CCNc1nc(NCc2ccc(F)cc2)nc2ccc(-c3cnc(N)s3)nc12` [Example 282, 6-(2-Amino-thiazol-5-yl)-N2-(4-fluoro-benzyl)-N4-(2-methanesulfonyl-ethyl)-pyrido[3,2-d]pyrimidine-2,4-diamine], the negative logarithm of the EC50 (pEC50) in series [1] was > 7.00. Moreover, the CC50 at 3 days in series [2] was > 25 µM.

As to `Nc1cnc(-c2ccc3nc(NCc4ccc(S(N)(=O)=O)cc4)nc(NCC(F)(F)F)c3n2)cn1` [Example 187, 4-{[6-(5-Amino-pyrazin-2-yl)-4-(2,2,2-trifluoro-ethylamino)-pyrido[3,2-d]pyrimidin-2-ylamino]-methyl}-benzenesulfonamide], in series [1], the pEC50 was > 7.00. Moreover, the cytotoxic concentration (CC50) at 3 days in series [2] is > 25 µM.

For `O=C(Nc1ccc(-c2ccc3nc(NCc4ccc(F)cc4)nc(NCC(F)(F)F)c3n2)cc1)C1(O)CC1` [Example 278, 1-Hydroxy-cyclopropanecarboxylic acid {4-[2-(4-fluoro-benzylamino)-4-(2,2,2-trifluoro-ethylamino)-pyrido[3,2-d]pyrimidin-6-yl]-phenyl}-amide], the pEC50 in series [1] was > 7.00. For the same compound, in series [2], the cytotoxic concentration (CC50) at 3 days was in the range of 5 to 25 µM.

Regarding `CCOc1nc(NCc2ccc(F)cc2)nc2ccc(-c3ccc(N4CCC(O)C4=O)cc3)nc12` (stereo not shown) [Example 86, 1-{4-[4-Ethoxy-2-(4-fluoro-benzylamino)-pyrido[3,2-d]pyrimidin-6-yl]-phenyl}-3-hydroxy-pyrrolidin-2-one], the negative-log EC50 (pEC50) in series [1] was > 7.00. Besides, the CC50 at 3 days in series [2] was < 5 µM.

Consider `Nc1ncc(-c2ccc3nc(NCc4ccc(S(N)(=O)=O)cc4)nc(NCC(F)(F)F)c3n2)s1` [Example 188, 4-{[6-(2-Amino-thiazol-5-yl)-4-(2,2,2-trifluoro-ethylamino)-pyrido[3,2-d]pyrimidin-2-ylamino]-methyl}-benzenesulfonamide], for which, in series [1], the negative-log EC50 (pEC50) is > 7.00. In series [2], this compound had a half-maximal cytotoxic concentration (CC50) at 3 days of 5 to 25 µM.

Regarding `CCOc1nc(NCc2ccc(F)cc2)nc2ccc(-c3cnc(N)cn3)nc12` [Example 62, [6-(5-Amino-pyrazin-2-yl)-4-ethoxy-pyrido[3,2-d]pyrimidin-2-yl]-(4-fluoro-benzyl)-amine], in series [1], the pEC50 was > 7.00. In addition, the CC50 at 3 days in series [2] was > 25 µM.

For the compound `CCOc1nc(NCc2ccc(C(N)=O)cc2)nc2ccc(-c3ccc(F)cc3)nc12` [Example 268, 4-{[4-Ethoxy-6-(4-fluoro-phenyl)-pyrido[3,2-d]pyrimidin-2-ylamino]-methyl}-benzamide], in series [1], the negative logarithm of the EC50 (pEC50) was > 7.00. This compound yielded a half-maximal cytotoxic concentration (CC50) at 3 days in series [2] of 5 to 25 µM.

In the case of `CCOc1nc(NCc2ccc(S(N)(=O)=O)cc2)nc2ccc(-c3ccc(S(N)(=O)=O)cc3)nc12` [Example 134, 4-{[4-Ethoxy-6-(4-(aminosulfonyl)-phenyl)-pyrido[3,2-d]pyrimidin-2-ylamino]-methyl}-benzenesulfonamide], in series [1], the pEC50 was > 7.00. The half-maximal cytotoxic concentration (CC50) at 3 days in series [2] was 5 to 25 µM.

On to `NS(=O)(=O)c1ccc(CNc2nc(NCC(F)(F)F)c3nc(-c4ccc(Cl)c(S(=O)(=O)NCCN5CCCC5)c4)ccc3n2)cc1` [Example 195, 2-Chloro-N-(2-pyrrolidin-1-yl-ethyl)-5-[2-(4-sulfamoyl-benzylamino)-4-(2,2,2-trifluoro-ethylamino)-pyrido[3,2-d]pyrimidin-6-yl]-benzenesulfonamide], for which the negative-log EC50 (pEC50) in series [1] is > 7.00. Besides, in series [2], the CC50 at 3 days is < 5 µM.

`CCOc1nc(NCCS(N)(=O)=O)nc2ccc(-c3ccc(F)cc3)nc12` [Example 265, 2-[4-Ethoxy-6-(4-fluoro-phenyl)-pyrido[3,2-d]pyrimidin-2-ylamino]-ethanesulfonic acid amide]: the pEC50 in series [1] is > 7.00. In series [2], this compound had a CC50 at 3 days of 5 to 25 µM.

In the case of `CCOc1nc(NCc2ccc(F)cc2)nc2ccc(-c3ccc(F)c(S(N)(=O)=O)c3)nc12` [Example 68, 5-[4-Ethoxy-2-(4-fluoro-benzylamino)-pyrido[3,2-d]pyrimidin-6-yl]-2-fluoro-benzenesulfonamide], the negative logarithm of the EC50 (pEC50) in series [1] was > 7.00. Also, the half-maximal cytotoxic concentration (CC50) at 3 days in series [2] was 5 to 25 µM.

On to `CCOc1nc(NCc2ccc(F)c(F)c2F)nc2ccc(-c3ccc(F)cc3)nc12` [Example 41, [4-Ethoxy-6-(4-fluoro-phenyl)-pyrido[3,2-d]pyrimidin-2-yl]-(2,3,4-trifluoro-benzyl)-amine], for which the negative logarithm of the EC50 (pEC50) in series [1] is > 7.00. Besides, the half-maximal cytotoxic concentration (CC50) at 3 days in series [2] was in the range of 5 to 25 µM.

As for `Fc1ccc(CNc2nc(NCc3cccnc3)c3nc(-c4ccc(F)cc4)ccc3n2)cc1` [Example 31, N2-(4-Fluoro-benzyl)-6-(4-fluoro-phenyl)-N4-pyridin-3-ylmethyl-pyrido[3,2-d]pyrimidine-2,4-diamine], the pEC50 in series [1] is > 7.00. Moreover, the half-maximal cytotoxic concentration (CC50) at 3 days in series [2] was in the range of 5 to 25 µM.

For the compound `CCOc1nc(NCc2ccc(S(N)(=O)=O)cc2)nc2ccc(-c3ccc(NC(=O)[C@H]4CCNC4)cc3)nc12` [Example 121, (S)-4-{[4-Ethoxy-6-(4-(pyrrolidine-3-carboxamido)-phenyl)-pyrido[3,2-d]pyrimidin-2-ylamino]-methyl}-benzenesulfonamide], the pEC50 in series [1] is > 7.00. Moreover, in series [2], the 50% cytotoxic concentration (CC50) at 3 days is > 25 µM.

As for `CCOc1nc(NCc2ccc(F)cc2)nc2ccc(-c3ccc(NC(=O)[C@H]4CCNC4)cc3)nc12` [Example 91, Pyrrolidine-3-carboxylic acid {4-[4-ethoxy-2-(4-fluoro-benzylamino)-pyrido[3,2-d]pyrimidin-6-yl]-phenyl}-amide], in series [1], the pEC50 is > 7.00. Moreover, the CC50 at 3 days in series [2] is < 5 µM.

`N#CC1(NC(=O)c2ccc(-c3ccc4nc(NCc5ccc(F)cc5)nc(O[C@H]5CCOC5)c4n3)cc2)CC1` [Example 283, N-(1-Cyano-cyclopropyl)-4-[2-(4-fluoro-benzylamino)-4-(tetrahydro-furan-3-yloxy)-pyrido[3,2-d]pyrimidin-6-yl]-benzamide]: the negative logarithm of the EC50 (pEC50) in series [1] was > 7.00. Further, the CC50 at 3 days in series [2] was < 5 µM.

With `CC(C)(O)CNc1nc(NCc2ccc(F)cc2)nc2ccc(-c3ccc(F)cc3)nc12` [Example 25, 1-[2-(4-Fluoro-benzylamino)-6-(4-fluoro-phenyl)-pyrido[3,2-d]pyrimidin-4-ylamino]-2-methyl-propan-2-ol], the pEC50 in series [1] was > 7.00. The CC50 at 3 days in series [2] is < 5 µM.

Consider `CCOc1nc(NCc2ccc(F)cc2)nc2ccc(-c3ccc(NC(=O)[C@H]4CCNC4)c(F)c3)nc12` [Example 90, Pyrrolidine-3-carboxylic acid {4-[4-ethoxy-2-(4-fluoro-benzylamino)-pyrido[3,2-d]pyrimidin-6-yl]-2-fluoro-phenyl}-amide], for which, in series [1], the pEC50 is > 7.00. In addition, in series [2], the CC50 at 3 days is < 5 µM.

With `CN1CC[C@H](C(=O)Nc2ccc(-c3ccc4nc(NCc5ccc(S(N)(=O)=O)cc5)nc(NCC(F)(F)F)c4n3)cc2F)C1` [Example 177, 1-Methyl-pyrrolidine-3-carboxylic acid {2-fluoro-4-[2-(4-sulfamoyl-benzylamino)-4-(2,2,2-trifluoro-ethylamino)-pyrido[3,2-d]pyrimidin-6-yl]-phenyl}-amide], the pEC50 in series [1] is > 7.00. The CC50 at 3 days in series [2] fell in the range of 5 to 25 µM.
